One data set has as its target human MALT-1 protein (Homo sapiens (Human), UniProt Q9UDY8). As to the kind of experiment: MALT-1 Biochemical Assay (Quench-FRET enzyme assay). The conditions noted are these: human MALT-1 6 nM, substrate 2 μM, 40 min preincubation. From the text:
A Quenched Fluorescence Resonance Energy Transfer (Quench-FRET) enzyme assay was used to test the ability of exemplary MALT-1 inhibitors Example 1 to Example 39 to inhibit the cleavage of a MALT1 specific quenched fluorescent substrate of sequence [TAMRA-PEG2-Leu-Val-Ser-Arg-Gly-Ala-Ala-Ser-PEG2-K(QSY7) by human MALT-1 protein; where TAMRA is 6-carboxytetramethylrhodamine, PEG2 is 2-(2-(2-aminoethoxy)ethoxyamide linker, QSY7 is a non-fluorescent quenching dye (Thermo-Fisher catalog #Q10193). The assay was performed by pre-dispensing compounds into 384 well Proxiplates™ (PE 6008289). Human MALT-1 (6 nM) was prepared using the assay buffer (25 mM HEPES pH 7.5, 1 mM ethylenediaminetetraacetic acid, 0.8 M sodium citrate, 0.005% Bovine serum albumin (BSA), 2 mM dithiothreitol (DTT)) and added to the compound plates. The plates were incubated 40 minutes at room temperature. The reaction was carried out by adding the substrate (2 μM) to the plates and incubating for 60 minutes at room temperature. A fluorescence readout was then measured using a PE EnVision® reader (Ex.535/Em.590). […] EC50 is defined as the half maximal effective concentration of compound to inhibit MALT-1 protease activity.

A further data set deals with OCI-LY3 IL6. Nature of the data set: MALT-1 Cell IL-6 AlphaLISA Assay. The format is cell-based. The conditions noted are these: Homo sapiens; OCI-LY3 cells, 48 hours incubation; read-out: OCI-LY3 IL6 48 hour Inhibition EC50. The procedure: The following MALT-1 Cell Interleukin-6 (IL-6) AlphaLISA assay was conducted using a Perkin Elmer® IL-6 AlphaLISA® detection kit (PE AL223). The IL-6 detection assay is a homogeneous immunoassay that detects human IL-6 present in the cell culture medium in the MALT-1 dependent human ABC-DLBCL cell line, OCI-LY3. Compounds were pre-dispensed into Black 384w microtiter plates (Greiner, 781090) from 30 μM to 1.5 nM. Viable OCI-LY3 cells were then seeded on top of compounds at a seeding density of 50,000 cells/mL. Plates were then placed into 37° C. incubators for 48 hours. After 48 hours incubation, 2 μL of cell medium from each well was transferred into white ProxiPlates™ (PE 6008289). A fresh mix of AlphaLISA Acceptor beads (10 μg/mL) and Biotinylated IL-6 Antibody (1 nM) was made in AlphaLISA Immunoassay buffer and added to all wells (4 μL). The plates were incubated for 60 minutes at room temperature. Streptavidin donor beads (40 μg/mL) were prepared using the assay buffer and added to all wells (5 The plates were incubated for 30 minutes at room temperature and read using PE EnVision® reader. Results are shown in Table 3.

The test system of another data set is CYP 3A4 mRNA. Nature of the data set: CYP3A4 Induction Assay (qPCR, human hepatocytes). The format is in vitro ADME. The settings on record: 10 μM compound, relative to rifampicin 10 μM. As to the method:
(§1) CYP induction by compounds of the Examples was evaluated in vitro by determining the expression levels of CYP 3A4 mRNA using the qPCR (quantitative polymerase chain reaction) assay. On day one, cryopreserved human hepatocytes were thawed in prewarmed (37° C.) thawing medium (cryopreserved hepatocyte recovery medium, Gibco™ CM 7000; Thermo Fisher Scientific), centrifuged (1000 g for 10 minutes) and resuspended in plating medium (Gibco™ CM3000—Williams Medium E supplemented with hepatocytes plating supplement pak-serum containing; Thermo Fisher Scientific). Cells were counted by trypan blue exclusion using a hemocytometer and adjusted to a cell density of […]. Thereafter, […] of cell suspension was aliquoted per well in a 96-well plate, resulting in 60,000 cells/well. Plates were shaken in the north-south and east-west direction during plating. Plated cells were incubated at 37° C/5% CO2 in a humidified cell culture incubator for 4-6 hours. During this time, incubation medium (Gibco™ CM4000, cell maintenance supplement pack; Thermo Fisher Scientific) was mixed with Gibco™ Geltrex™ (Thermo Fischer Scientific) at the appropriate GeltrexTM protein concentration. Following recovery, medium was removed from cells and replaced with freshly prepared incubation medium. Cells were incubated overnight in a cell culture incubator (37° C./5% CO2).
(§2) The next day the incubation medium was prepared by combining the hepatocyte maintenance supplement pack with Williams Medium E. The medium was warmed to 37° C. 1000× dimethyl sulfoxide compound stocks of the compounds of the Examples were prepared to the desired concentrations. 10 mM compound stocks in dimethyl sulfoxide were diluted (1 μL to 1 mL CM4000; final concentration=10 μM). Overlay medium was aspirated and […] dose solution added to the desired labeled 96 well plate. Cells were then dosed with compound (10 μM) and prototypical induces at the targeted concentrations either 50 i.tM for omeprazole (Sigma 0104/lotBCBF-2161V) or 10 i.tM for rifampicin (Sigma R3501/lot 011M1159V). A negative control, probenecid, was dosed at 10 i.tM (Sigma P8761/lot 013K0148).
(§3) On day 3, RNA isolation was performed. All surfaces were cleaned using RNase RNAy. Total RNA was isolated using MagMAX Express 96 RNA Isolation System (Life Technologies, AM1830). Briefly, hepatocytes were washed once with 1X PBS (phosphate buffered saline). 145 μL of RNA Lysis Buffer was added to each well and each well was mixed by pipetting several times. Lysate was then transferred to a well of a 96 well Binding Plate. Samples were then mixed with 20 μL magnetic beads coming from the kit. RNA bound to beads was then captured by the magnetic tip manifold and beads were washed with the wash solution. Samples were treated with TURBOTmDNase. After TURBOTmDNase treatment, RNA was rebound to beads and washed with the provided wash buffer an additional two times. Beads are then dried, and RNA was eluted with 50 μL elution buffer. The eluted mRNA was transferred from the wells to RNase-free sealable microtiter plates and stored at -80° C. until use.
(§4) Following mRNA isolation, reverse transcription (RT) reactions were performed using TaqmanTm Reverse Transcription Reagents (ThermoFisher Scientific). RT master mix was prepared by mixing 2.5 μL 10× RT buffer, 5.5 μL 25 mM MgCl2, 5μL deoxyNTP mixture, 1.25 50 mM random hexamers, 0.5 μL 2× RNAse inhibitor, 0.625 μL multiscript RTase (50U/μL) and 0.625 μL water. An aliquot of RT mix (16 μL) and an aliquot of mRNA sample (9 μL) was added to each well of a 96-well plate. The SimpliAmpTM Thermal cycler PCR System VIIA7 from Applied Biosystems was used for reverse transcription under the following conditions: segment 1: 25° C. for 10 minutes; segment 2: 45° C. for 45 minutes; segment 3: 95° C. for 5 minutes; and segment 4: 4° C. hold; with 1 cycle for each segment. […]

A further data set relates to CYP3A4 mRNA. Nature of the data set: CYP3A4 Induction Assay (qPCR, human hepatocytes). The class given is in vitro ADME. The conditions noted are these: cryopreserved human hepatocytes (plated), 10 μM compound, mRNA fold over vehicle (0.1% DMSO). As to the method:
as §1, §2, §3, §4
(Real-time PCR tracks product formation cycle by cycle.)

These results are taken from patent publication US20230312601A1, “THIAZOLO[5,4-B]PYRIDINE MALT-1 INHIBITORS” (AbbVie Inc., priority 2022, published 2023).

In general, EC50 refers to the concentration needed to bring the measured effect to its halfway point. By fold induction is commonly meant the ratio of treated to control signal.

Sequence of human MALT-1 protein (Q9UDY8 whole entry): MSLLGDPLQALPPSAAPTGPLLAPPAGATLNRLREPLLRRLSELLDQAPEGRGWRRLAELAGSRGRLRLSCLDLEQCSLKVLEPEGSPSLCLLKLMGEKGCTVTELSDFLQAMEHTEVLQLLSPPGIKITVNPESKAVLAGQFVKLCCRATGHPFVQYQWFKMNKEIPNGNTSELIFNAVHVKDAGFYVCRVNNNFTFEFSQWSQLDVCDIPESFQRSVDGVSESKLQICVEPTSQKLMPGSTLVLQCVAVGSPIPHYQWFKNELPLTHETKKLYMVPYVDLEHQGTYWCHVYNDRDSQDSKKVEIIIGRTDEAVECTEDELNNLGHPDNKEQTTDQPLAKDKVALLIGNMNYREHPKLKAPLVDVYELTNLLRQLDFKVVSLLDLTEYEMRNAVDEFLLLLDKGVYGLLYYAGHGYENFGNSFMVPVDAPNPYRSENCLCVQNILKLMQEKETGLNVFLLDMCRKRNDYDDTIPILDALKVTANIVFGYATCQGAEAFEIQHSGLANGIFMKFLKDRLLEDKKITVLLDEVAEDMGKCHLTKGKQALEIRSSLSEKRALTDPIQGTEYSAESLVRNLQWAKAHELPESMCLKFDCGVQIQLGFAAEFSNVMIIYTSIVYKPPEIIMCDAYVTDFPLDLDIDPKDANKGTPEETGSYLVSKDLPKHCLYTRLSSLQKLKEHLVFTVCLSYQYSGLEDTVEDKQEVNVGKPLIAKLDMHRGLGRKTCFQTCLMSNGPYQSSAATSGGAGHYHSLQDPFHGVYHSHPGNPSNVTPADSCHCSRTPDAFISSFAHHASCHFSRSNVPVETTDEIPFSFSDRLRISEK

`CO[C@@H](c1c(Nc2ccc([C@H](N(C)C(=O)C3CCS(=O)(=O)CC3)C(F)(F)F)cc2)cnc2sc(C)nc12)C(F)(F)F` [Example 11, N-methyl-1,1-dioxo-N-{(1S)-2,2,2-trifluoro-1-[4-({2-methyl-7-[(1S)-2,2,2-trifluoro-1-methoxyethyl][1,3]thiazolo[5,4-b]pyridin-6-yl}amino)phenyl]ethyl}-1λ^6-thiane-4-carboxamide]: the EC50 on human MALT-1 protein was found to be 155 nM; with OCI-LY3 IL6, 390 nM. For the same compound, the “CYP3A4 % of positive control (%)” value in the data set with CYP 3A4 mRNA is given as “(20) %”. Further, the fold induction at 1 day, 10 µM in the data set with CYP3A4 mRNA amounted to 2.59.
Regarding `CO[C@H](C)c1c(Nc2ccc([C@@H](C(F)F)N(C)C(=O)C3CCS(=O)(=O)CC3)cc2)cnc2sc(C)nc12` [Example 12, N-{(1S)-2,2-difluoro-1-[4-({7-[(1R)-1-methoxyethyl]-2-methyl[1,3]thiazolo[5,4-b]pyridin-6-yl}amino)phenyl]ethyl}-N-methyl-1,1-dioxo-1λ^6-thiane-4-carboxamide], the figures for the EC50 at human MALT-1 protein and with OCI-LY3 IL6 were 61 nM and 200 nM, respectively. The “CYP3A4 % of positive control (%)” value in the data set with CYP 3A4 mRNA is reported as “(31) %”. In the data set with CYP3A4 mRNA, the fold induction at 1 day, 10 µM was determined as 3.65.
For `CO[C@@H](c1c(Nc2ccc([C@@H](C(F)F)N(C)C(=O)C3CCS(=O)(=O)CC3)cc2)cnc2sc(C)nc12)C(F)F` [Example 13, N-{(1S)-1-[4-({7-[(1S)-2,2-difluoro-1-methoxyethyl]-2-methyl[1,3]thiazolo[5,4-b]pyridin-6-yl}amino)phenyl]-2,2-difluoroethyl}-N-methyl-1,1-dioxo-1λ^6-thiane-4-carboxamide], in that order: 193 nM, 420 nM, “(34.8) %” and 3.19.
Take `CO[C@H](c1c(Nc2ccc([C@@H](C(F)F)N(C)C(=O)C3CCS(=O)(=O)CC3)cc2)cnc2sc(C)nc12)C(F)(F)F` [Example 14, N-{(1S)-2,2-difluoro-1-[4-({2-methyl-7-[(1R)-2,2,2-trifluoro-1-methoxyethyl][1,3]thiazolo[5,4-b]pyridin-6-yl}amino)phenyl]ethyl}-N-methyl-1,1-dioxo-1λ^6-thiane-4-carboxamide]: the EC50 on human MALT-1 protein was determined as 97 nM; with OCI-LY3 IL6 it was 200 nM. Further, the “CYP3A4 % of positive control (%)” value with CYP 3A4 mRNA is on record as “(27.3) %”. For the same compound, in the data set on CYP3A4 mRNA, the fold induction at 1 day, 10 µM is 2.71.
Turning to `CO[C@@H](C)c1c(Nc2ccc([C@H](N(C)C(=O)C3CCS(=O)(=O)CC3)C(F)(F)F)cc2)cnc2sc(C(F)F)nc12` [Example 15, N-{(1 5)-1-[4-({2-(difluoromethyl)-7-[(1S)-1-methoxyethyl][1,3]thiazolo[5,4-b]pyridin-6-yl}amino)phenyl]-2,2,2-trifluoroethyl}-N-methyl-1,1-dioxo-1λ^6-thiane-4-carboxamide], the EC50 at human MALT-1 protein was found to be 103 nM; with OCI-LY3 IL6 it was 300 nM. Also, the “CYP3A4 % of positive control (%)” value in the data set on CYP 3A4 mRNA was “(−4.74) %”. Besides, in the data set with CYP3A4 mRNA, the fold induction at 1 day, 10 µM amounted to 0.413.
The matching figures for `CO[C@H](c1c(Nc2ccc([C@H](N(C)C(=O)C3CCN(C(C)=O)CC3)C(F)(F)F)cc2)cnc2sc(C)nc12)C(F)F` [Example 18, 1-acetyl-N-{(1,5)-1-[4({7-[(1R)-2,2-difluoro-1-methoxyethyl]-2-methyl[1,3]thiazolo [5,4-b]pyridin-6-yl}amino)phenyl]-2,2,2-trifluoroethyl}-N-methylpiperidine-4-carboxamide]: 284 nM, 1150 nM, “(16.5) %” and 2.8.
The matching figures for `CO[C@@H](C)c1c(Nc2ccc([C@H](N(C)C(=O)C3CCN(C(=O)CO)CC3)C(F)(F)F)cc2)cnc2sc(C)nc12` [Example 20, 1-(hydroxyacetyl)-N-methyl-N-{(1S)-2,2,2-trifluoro-1-[4-({7-[(1S)-1-methoxyethyl]-2-methyl[1,3]thiazolo [5,4-b]pyridin-6-yl}amino)phenyl]ethyl}piperidine-4-carboxamide]: 120 nM, 180 nM, “(4.08) %” and 1.38.
`CO[C@H](c1c(Nc2ccc([C@H](N(C)C(=O)C3CCN(C(=O)CO)CC3)C(F)(F)F)cc2)cnc2sc(C)nc12)C(F)F` [Example 21, N-{(1S) -1-[4-({7-[(1R)-2,2-difluoro-1-methoxyethyl]-2-methyl[1,3]thiazolo[5,4-b]pyridin-6-yl}amino)phenyl]-2,2,2-trifluoroethyl}-1-(hydroxyacetyl)-N-methylpiperidine-4-carboxamide]: the figures for the EC50 on human MALT-1 protein and in the data set on OCI-LY3 IL6 were 141 nM and 670 nM, respectively. For the same compound, the “CYP3A4 % of positive control (%)” value in the data set on CYP 3A4 mRNA is “(5.55) %”. Further, the fold induction at 1 day, 10 µM in the data set on CYP3A4 mRNA came to 1.29.
The matching figures for `CO[C@@H](C)c1c(Nc2ccc([C@H](N(C)C(=O)C3CCN(C(=O)CCO)CC3)C(F)(F)F)cc2)cnc2sc(C)nc12` [Example 22, 1-(3-hydroxypropanoyl)-N-methyl-N-{(1S)-2,2,2-trifluoro-1-[4-({7-[(1S)-1-methoxyethyl]-2-methyl[1,3]thiazolo[5,4-b]pyridin-6-yl}amino)phenyl]ethyl}piperidine-4-carboxamide]: 228 nM, 380 nM, “(1.16) %” and 1.09.
